Measurements taken from patent US20250241294A1, “ITACONATE PRESERVATION SOLUTION” (University Health Network, priority 2024, published 2025).

Key:
[1] = test system: Human BEAS-2B bronchial epithelial cells; experiment: BEAS-2B cold ischemia-reperfusion injury model: cell morphology; assay type: cell-based
Procedure: (§1) Human BEAS-2B bronchial epithelial cells were cultured until subconfluence in 96-well plates with standard media (DMEM+10% FBS). […] These parameters simulated the real-life environment of standard lung preservation.
(§2) This was followed by up to 48 h of warm reperfusion at 37° C. in regular cell culture media (at 5% CO2). Regular cell media was used as negative control for the simulated cold ischemia, and regular LPD was used as positive control. Upon switching to LPD, the four different itaconate derivatives in the three different concentrations were assessed and compared to regular LPD and standard media during cold static preservation. Confluence and apoptosis measurements (based on Caspase3/7 dye) were taken by serial imaging in an Incucyte S3 Live Cell imaging device to assess the efficacy of the itaconate-containing solutions in preserving each cell culture.
(§3) Four different itaconate molecules were tested, each in three different dosages and four replicates: underivatized itaconic acid (ITA) at 5 mM, 7.5 mM, and 10 mM; pH-corrected itaconic acid (NaOH-ITA) at 5 mM, 7.5 mM, and 10 mM; dimethyl itaconate (DI) at 0.125 mM, 0.25 mM, and 0.5 mM; and 4-octyl itaconate (4OI) at 0.125 mM, 0.25 mM, and 0.5 mM. […] Upon switching to LPD, the four different itaconate molecules in the three different concentrations each were assessed and compared to regular LPD (positive control) and standard media (negative control) during cold static preservation. Four replicates for each condition were used.
For example, FIG. 6B illustrates the cell morphology of cells exposed to i) LPD (positive control), ii) DMEM (negative control), iii) ITA 10 mM, iv) DI 0.25 mM, and v) 4OI 0.25 mM following cold ischemia. FIG. 6C illustrates the cell morphology of these groups at reperfusion at t=22 h. […] The cells cultured in DMEM (the negative control) died during cold ischemia and were washed away during reperfusion, as shown by a comparison of FIG. 6B to FIG. 6C.

[2] = test system: Human BEAS-2B bronchial epithelial cells; experiment: BEAS-2B cold ischemia-reperfusion injury model: confluence by Incucyte imaging; assay type: cell-based; conditions: for confluence, mean percent difference compared to standard LPD alone: immediately upon reperfusion
Procedure: as §1, §2, §3
FIG. 5D illustrates the cell confluence results of the in vitro phase. T=0 represents the cell confluence reached before the 18-hour period of cold ischemia described with respect to FIG. 5A. Cells were cultured until subconfluence (shown at t=4 h in FIG. 5D), followed by cold ischemia from t=4 h to t=22 h. T=22 h represents the beginning of warm reperfusion as described with respect to FIG. 5A.

pig lungs = experiment: Porcine ex vivo lung perfusion (EVLP) model of lung transplantation: lung physiology; parameters: species or system Yorkshire pigs
Procedure: (§4) Lungs were surgically harvested from Yorkshire pigs weighing 31-38 kg. The dimethyl itaconate (DI) 0.25 mM solution was selected for testing in vivo due to positive performance in vitro. The lungs were randomized to be flushed with a flush solution of Low Potassium Dextran (LPD) in two groups, with or without 0.25 mM dimethyl itaconate (DI) (n=4 pairs of lungs per group). For flushing, 2 L of flush solution were administered antegrade, and […] was administered retrograde prior to lung static preservation. Retrograde flush solution was collected in a sterile bag and used to coat the lungs during the preservation period. When appropriate (based on assigned randomization), DI was added to all 3 L of flush solution. Surgical teams were blinded to the intervention.
(§5) Still referring to FIG. 5C, lungs were subsequently preserved at 4° C. for an extended period of 36 h, then reperfused on EVLP for 6 h. EVLP allows lungs to be ventilated, reperfused to normothermia, and evaluated in an extracorporeal platform. EVLP performance was measured because it strongly correlates with post-transplant, recipient performance. Multiple physiological parameters of lung function were measured, and perfusate and tissue biopsies were collected. The measured physiological parameters included plateau airway pressure, change in partial pressure of oxygen delta PO2 (left atrium PO2—pulmonary artery PO2), static compliance, pulmonary vascular resistance (PVR), total perfusate loss, and wet to dry (W/D) ratios.
(§6) Statistical analysis was performed with GraphPad prism 9.0 (GraphPad Software, San Diego, CA). Two-way repeated measures ANOVA with Dunn's post-test based on the distribution of data and Mann-Whitney test were used for comparison between groups, when appropriate. Values are presented as mean±SEM unless stated otherwise, and p values <0.05 are considered statistically significant.

[3] = test system: Human bronchiole epithelial cells (BEAS2B); experiment: Intracellular free ferrous iron (FerroOrange) after cold storage; assay type: cell-based; conditions: LPD + 0.25 mM DI vs LPD alone; 24 h at 10° C.; p<0.001
Procedure: This example aimed to determine whether an organ preservation solution having 0.25 mM dimethyl itaconate (DI) could have anti-ferroptotic properties. Human bronchiole epithelial cells (BEAS2B) were cultured to sub-confluence in standard culture medium (DMEM+10% fetal bovine serum) at 37° C. Upon reaching sub-confluence, the culture medium was aspirated completely, and cells were washed twice with phosphate-buffered saline (PBS) before adding cooled LPD or LPD supplemented with DI at a concentration of 0.25 mM. Cells were then placed in a 10° C. refrigeration unit for 24 hours. […] To measure intracellular iron between treatment groups after storage for 24 h at 10° C., FerroOrange, a fluorescent probe for free ferrous ions (Fe2+), was used according to the manufacturer's protocol (Dojindo Molecular Laboratories, MD, USA).
A […] FerroOrange solution was prepared in serum-free DMEM. Cells were washed with serum-free DMEM three times before being exposed to FerroOrange solution. The plate was then stored at 37° C. for 30 minutes. Fluorescence was quantified with a Cytation microplate reader (BioTek, VT, USA), with the top reading mode at an excitation wavelength of 543 nm and emission wavelength of 580 nm.

[4] = test system: inflammatory cytokines in both tissue and perfusate; experiment: Porcine EVLP model: cytokine analysis of lung tissue and perfusate; assay type: in vivo, Yorkshire pigs; conditions: DI 0.25 mM flush vs control
Procedure: as §4, §5, §6

[5] = test system: Human BEAS-2B bronchial epithelial cells; experiment: BEAS-2B cold ischemia-reperfusion injury model: apoptosis (Caspase3/7 dye); assay type: cell-based; conditions: immediately upon reperfusion, p<0.001
Procedure: as §1
This was followed by up to 48 h of warm reperfusion at 37° C. in regular cell culture media (at 5% CO2). Regular cell media was used as negative control for the simulated cold ischemia, and regular LPD was used as positive control. Upon switching to LPD, the four different itaconate derivatives in the three different concentrations were assessed and compared to regular LPD and standard media during cold static preservation. […]
Four different itaconate molecules were tested, each in three different dosages and four replicates: underivatized itaconic acid (ITA) at 5 mM, 7.5 mM, and 10 mM; pH-corrected itaconic acid (NaOH-ITA) at 5 mM, 7.5 mM, and 10 mM; dimethyl itaconate (DI) at 0.125 mM, 0.25 mM, and 0.5 mM; and 4-octyl itaconate (4OI) at 0.125 mM, 0.25 mM, and 0.5 mM. […] Upon switching to LPD, the four different itaconate molecules in the three different concentrations each were assessed and compared to regular LPD (positive control) and standard media (negative control) during cold static preservation. […]

C=C(CC(=O)OCCCCCCCC)C(=O)O [4OI, 4-octyl itaconate]
cell morphology ([1]; 0.25 mM and 0.5 mM 4OI in LPD, 18 h cold ischemia at 4° C., reperfusion): morphological cell injury to a lower extent
cell confluence compared to standard LPD alone or DI ([2]; 4OI in LPD, 18 h cold ischemia, reperfusion): did not perform favorably

C=C(CC(=O)OC)C(=O)OC [DI, dimethyl itaconate]
areas of edema on dorsal lung surface (pig lungs; flush LPD with 0.25 mM DI vs LPD, 36 h at 4° C., after 6 h of perfusion): more pronounced in the control group when compared to the DI group
plateau airway pressures (pig lungs; flush LPD+DI 0.25 mM vs LPD, 36 h at 4° C., 6 h EVLP, p<0.0001): lower
delta PO2 (left atrium PO2—pulmonary artery PO2) (pig lungs; flush LPD+DI 0.25 mM vs LPD, 36 h at 4° C., 6 h EVLP, p<0.01): higher
static compliances (pig lungs; flush LPD+DI 0.25 mM vs LPD, 36 h at 4° C., 6 h EVLP, p<0.05): higher
total perfusate loss (pig lungs; flush LPD+DI 0.25 mM vs control, 6 h EVLP, not statistically significant): trend toward reduced total perfusate loss
wet-to-dry ratios (pig lungs; flush LPD+DI 0.25 mM vs control, trend, not statistically significant): reduced wet-to-dry ratios
intracellular iron (FerroOrange fluorescence) [3]: significantly reduced amount of intracellular iron
IL-6 expression levels in the perfusate ([4]; after 6 hours, p<0.05): significantly reduced
IL-8 expression levels in the perfusate ([4]; after 6 hours, p<0.05): reduced IL-8 expression levels
perfusate expression of TNF-α ([4]; after 6 hours, p<0.05): significantly reduced perfusate expression of TNF-α
IL-10 expression levels in the perfusate ([4]; after 6 hours, p<0.05 (FIG. 5M)): reduced IL-10 expression levels
tissue IL-8 expression ([4]; lung tissue, p<0.0001): reduced tissue IL-8 expression
cellular morphology ([1]; DI in LPD, 18 h cold ischemia at 4° C., reperfusion (FIG. 6D)): did not indicate any signs of shrinkage, pyknosis, or karyorrhexis
confluence ranking among tested solutions ([2]; DI 0.125 mM): highest confluence
confluence, mean percent difference compared to standard LPD alone ([2]; DI 0.125 mM, CI 2.0-13.7, p<0.01): 7.84%
confluence ranking among tested solutions ([2]; DI 0.25 mM): highest confluence
confluence, mean percent difference compared to standard LPD alone ([2]; DI 0.25 mM, CI 12.34-0.14, p<0.05): 6.24%
confluence compared to positive control (LPD) ([2]; after 24 h of reperfusion, p<0.001): differences remained favoring DI

C=C(CC(=O)O)C(=O)O [ITA, itaconic acid]
apoptosis counts compared to positive controls ([5]; ITA in LPD): elevated apoptosis counts
cell morphology ([1]; ITA in LPD (10 mM shown), 18 h cold ischemia at 4° C., 50% O2, compared to LPD): cell shrinkage, nuclear pyknosis (condensation), and start of karyorrhexis (fragmentation), consistent with irreversible cell injury
confluence over reperfusion ([2]; ITA in LPD, over 48 hours of reperfusion at 37° C.): stable confluence

C=C(CC(=O)O)C(=O)O [NaOH-ITA, itaconic acid]
apoptosis counts compared to positive controls ([5]; higher concentrations of NaOH-ITA): elevated apoptosis counts
cell morphology ([1]; higher concentrations of NaOH-ITA in LPD, after 18 h cold ischemia at 4° C.): presented morphological changes
